Values of other authors as cited in patent US11559637B2, “Inhalers and related methods” (Norton (Waterford) Limited, priority 2017, dated 2023).

In the case of `FCC(F)(F)F` [HFA134a, 1,1,1,2-tetrafluoroethane], the surface tension (as liquid at 25° C.) is given as “about 8 mN/m” and the vapor pressure (at 20° C.) is given as 572 kpa.
